Test results taken from ChEMBL document CHEMBL5252555, “Antimicrobial Polyketides from the Marine-Derived Fungus Spiromastix sp. SCSIO F190” (J Nat Prod, 2023).
In brackets after ≈: the same amount, converted by molar mass. Activity calls are given as the source filed them. The rule behind the calls is not given here.

Assays:
HepG2 = experiment: Cytotoxicity against human HepG2 cells incubated for 48 hrs by CCK-8 assay; assay type: functional, cell-based
HUVEC = experiment: Cytotoxicity against HUVEC cells incubated for 48 hrs by CCK-8 assay; assay type: toxicity, cell-based; conditions: human
Staphylococcus aureus [1] = experiment: Antibacterial activity against methicillin-resistant Staphylococcus aureus assessed as inhibition of bacterial growth incubated for 18 hrs by broth microdilution method; assay type: functional
HeLa = experiment: Cytotoxicity against human HeLa cells incubated for 48 hrs by CCK-8 assay; assay type: functional, cell-based
HCT-116 = experiment: Cytotoxicity against human HCT-116 cells incubated for 48 hrs by CCK-8 assay; assay type: functional, cell-based
Staphylococcus aureus [2] = experiment: Antibacterial activity against Staphylococcus aureus 669 assessed as inhibition of bacterial growth incubated for 18 hrs by broth microdilution method; assay type: functional
Micrococcus luteus = experiment: Antibacterial activity against Micrococcus luteus ML01 assessed as inhibition of bacterial growth incubated for 18 hrs by broth microdilution method; assay type: functional
Staphylococcus aureus [3] = experiment: Antibacterial activity against Staphylococcus aureus 16162 assessed as inhibition of bacterial growth incubated for 18 hrs by broth microdilution method; assay type: functional
Staphylococcus aureus [4] = experiment: Antibacterial activity against Staphylococcus aureus ATCC 29213 assessed as inhibition of bacterial growth incubated for 18 hrs by broth microdilution method; assay type: functional
Staphylococcus simulans = experiment: Antibacterial activity against Staphylococcus simulans AKA1 assessed as inhibition of bacterial growth incubated for 18 hrs by broth microdilution method; assay type: functional
Enterococcus faecium [5] = experiment: Antibacterial activity against Enterococcus faecium 35682 assessed as inhibition of bacterial growth incubated for 18 hrs by broth microdilution method; assay type: functional
Staphylococcus aureus [6] = experiment: Antibacterial activity against Staphylococcus aureus 3090 assessed as inhibition of bacterial growth incubated for 18 hrs by broth microdilution method; assay type: functional
[7] = Cytotoxicity against human LX2 cells incubated for 48 hrs by CCK-8 assay; assay type: toxicity, cell-based; conditions: lx-2, 48 h
Enterococcus gallinarum = experiment: Antibacterial activity against Enterococcus gallinarum 5F52C assessed as inhibition of bacterial growth incubated for 18 hrs by broth microdilution method; assay type: functional
Staphylococcus aureus [8] = experiment: Antibacterial activity against Staphylococcus aureus 745324 assessed as inhibition of bacterial growth incubated for 18 hrs by broth microdilution method; assay type: functional
Staphylococcus aureus [9] = experiment: Antibacterial activity against Staphylococcus aureus 6917 assessed as inhibition of bacterial growth incubated for 18 hrs by broth microdilution method; assay type: functional
A549 = experiment: Cytotoxicity against human A549 cells incubated for 48 hrs by CCK-8 assay; assay type: functional, cell-based
Staphylococcus aureus [10] = experiment: Antibacterial activity against Staphylococcus aureus 1862 assessed as inhibition of bacterial growth incubated for 18 hrs by broth microdilution method; assay type: functional
MCF7 = experiment: Cytotoxicity against human MCF7 cells incubated for 48 hrs by CCK-8 assay; assay type: functional, cell-based
Bacillus subtilis = experiment: Antibacterial activity against Bacillus subtilis BS01 assessed as inhibition of bacterial growth incubated for 18 hrs by broth microdilution method; assay type: functional
Staphylococcus aureus [11] = experiment: Antibacterial activity against Staphylococcus aureus 991 assessed as inhibition of bacterial growth incubated for 18 hrs by broth microdilution method; assay type: functional
Enterococcus faecium [12] = experiment: Antibacterial activity against Enterococcus faecium 36711 assessed as inhibition of bacterial growth incubated for 18 hrs by broth microdilution method; assay type: functional
Staphylococcus aureus [13] = experiment: Antibacterial activity against Staphylococcus aureus GDE4P037P assessed as inhibition of bacterial growth incubated for 18 hrs by broth microdilution method; assay type: functional
RBE = experiment: Cytotoxicity against human RBE cells incubated for 48 hrs by CCK-8 assay; assay type: functional, cell-based
Enterococcus faecalis [14] = experiment: Antibacterial activity against Enterococcus faecalis 36950 assessed as inhibition of bacterial growth incubated for 18 hrs by broth microdilution method; assay type: functional
Enterococcus faecalis [15] = experiment: Antibacterial activity against Enterococcus faecalis ATCC 29212 assessed as inhibition of bacterial growth incubated for 18 hrs by broth microdilution method; assay type: functional
Enterococcus faecium [16] = experiment: Antibacterial activity against Enterococcus faecium 36235 assessed as inhibition of bacterial growth incubated for 18 hrs by broth microdilution method; assay type: functional
Staphylococcus aureus [17] = experiment: Antibacterial activity against Staphylococcus aureus 16339 assessed as inhibition of bacterial growth incubated for 18 hrs by broth microdilution method; assay type: functional
Staphylococcus aureus [18] = experiment: Antibacterial activity against Staphylococcus aureus 718306 assessed as inhibition of bacterial growth incubated for 18 hrs by broth microdilution method; assay type: functional

Row | Compound | Activity (HepG2) | Activity (HUVEC) | MIC (Staphylococcus aureus [1]) [µg/mL] | Activity (HeLa) | Activity (HCT-116) | MIC (Staphylococcus aureus [2]) [µg/mL] | MIC (Micrococcus luteus) [µg/mL] | MIC (Staphylococcus aureus [3]) [µg/mL] | MIC (Staphylococcus aureus [4]) [µg/mL] | MIC (Staphylococcus simulans) [µg/mL] | MIC (Enterococcus faecium [5]) [µg/mL] | MIC (Staphylococcus aureus [6]) [µg/mL] | Activity [7] | MIC (Enterococcus gallinarum) [µg/mL] | MIC (Staphylococcus aureus [8]) [µg/mL] | MIC (Staphylococcus aureus [9]) [µg/mL] | Activity (A549) | MIC (Staphylococcus aureus [10]) [µg/mL] | Activity (MCF7) | MIC (Bacillus subtilis) [µg/mL] | other results
1 | CCCCC/C=C1/C(=O)C(CC=C(C)C)=C(C)C1O (stereo unspecified) | inactive | Non-Toxic | > 128 | inactive | inactive | > 128 | > 128 | > 128 | > 128 | > 128 | > 128 | > 128 | Non-Toxic | > 128 | > 128 | > 128 | inactive | > 128 | inactive | > 128 | MIC (Staphylococcus aureus [11]): > 128 µg/mL; MIC (Enterococcus faecium [12]): > 128 µg/mL; MIC (Staphylococcus aureus [13]): > 128 µg/mL; Activity (RBE): inactive; MIC (Enterococcus faecalis [14]): > 128 µg/mL; MIC (Enterococcus faecalis [15]): > 128 µg/mL; MIC (Enterococcus faecium [16]): > 128 µg/mL; MIC (Staphylococcus aureus [17]): > 128 µg/mL; MIC (Staphylococcus aureus [18]): > 128 µg/mL
2 | CCCc1c(Cl)c(OC)c(Cl)c(Oc2c(Cl)c(O)c(Cl)c3c2C(=O)O[C@H](C)C3)c1OC | inactive | Non-Toxic | 4 (≈ 7.84 µM) | inactive | inactive | 4 (≈ 7.84 µM) | 2 (≈ 3.92 µM) | 4 (≈ 7.84 µM) | 4 (≈ 7.84 µM) | 4 (≈ 7.84 µM) | 32 (≈ 62.7 µM) | 4 (≈ 7.84 µM) | Non-Toxic | 4 (≈ 7.84 µM) | 4 (≈ 7.84 µM) | 8 (≈ 15.7 µM) | inactive | 4 (≈ 7.84 µM) | inactive | 2 (≈ 3.92 µM) | MIC (Staphylococcus aureus [11]): 4 µg/mL (≈ 7.84 µM); MIC (Enterococcus faecium [12]): 8 µg/mL (≈ 15.7 µM); MIC (Staphylococcus aureus [13]): 8 µg/mL (≈ 15.7 µM); Activity (RBE): inactive; MIC (Enterococcus faecalis [14]): 4 µg/mL (≈ 7.84 µM); MIC (Enterococcus faecalis [15]): 8 µg/mL (≈ 15.7 µM); MIC (Enterococcus faecium [16]): 16 µg/mL (≈ 31.4 µM); MIC (Staphylococcus aureus [17]): 4 µg/mL (≈ 7.84 µM); MIC (Staphylococcus aureus [18]): 8 µg/mL (≈ 15.7 µM)
3 | CCCc1c(O)c(Oc2c(Cl)c(O)c(Cl)c3c2C(=O)O[C@H](C)C3)cc(OC)c1Cl | inactive | Non-Toxic | 8 (≈ 17.3 µM) | inactive | inactive | 16 (≈ 34.7 µM) | 8 (≈ 17.3 µM) | 16 (≈ 34.7 µM) | 8 (≈ 17.3 µM) | 8 (≈ 17.3 µM) | 16 (≈ 34.7 µM) | 8 (≈ 17.3 µM) | Non-Toxic | 16 (≈ 34.7 µM) | 16 (≈ 34.7 µM) | 16 (≈ 34.7 µM) | inactive | 16 (≈ 34.7 µM) | inactive | 8 (≈ 17.3 µM) | MIC (Staphylococcus aureus [11]): 8 µg/mL (≈ 17.3 µM); MIC (Enterococcus faecium [12]): 16 µg/mL (≈ 34.7 µM); MIC (Staphylococcus aureus [13]): 32 µg/mL (≈ 69.3 µM); Activity (RBE): inactive; MIC (Enterococcus faecalis [14]): 16 µg/mL (≈ 34.7 µM); MIC (Enterococcus faecalis [15]): 32 µg/mL (≈ 69.3 µM); MIC (Enterococcus faecium [16]): 32 µg/mL (≈ 69.3 µM); MIC (Staphylococcus aureus [17]): 16 µg/mL (≈ 34.7 µM); MIC (Staphylococcus aureus [18]): 16 µg/mL (≈ 34.7 µM)
4 | CCCc1cc(Oc2c(O)c(Cl)c(O)c(Cl)c2CCC)c(Cl)c(OC)c1Cl | inactive | Non-Toxic | 2 (≈ 4.4 µM) | inactive | inactive | 2 (≈ 4.4 µM) | 1 (≈ 2.2 µM) | 2 (≈ 4.4 µM) | 2 (≈ 4.4 µM) | 2 (≈ 4.4 µM) | 2 (≈ 4.4 µM) | 2 (≈ 4.4 µM) | Non-Toxic | 4 (≈ 8.81 µM) | 2 (≈ 4.4 µM) | 2 (≈ 4.4 µM) | inactive | 2 (≈ 4.4 µM) | inactive | 1 (≈ 2.2 µM) | MIC (Staphylococcus aureus [11]): 2 µg/mL (≈ 4.4 µM); MIC (Enterococcus faecium [12]): 2 µg/mL (≈ 4.4 µM); MIC (Staphylococcus aureus [13]): 2 µg/mL (≈ 4.4 µM); Activity (RBE): inactive; MIC (Enterococcus faecalis [14]): 0.5 µg/mL (≈ 1.1 µM); MIC (Enterococcus faecalis [15]): 2 µg/mL (≈ 4.4 µM); MIC (Enterococcus faecium [16]): 1 µg/mL (≈ 2.2 µM); MIC (Staphylococcus aureus [17]): 2 µg/mL (≈ 4.4 µM); MIC (Staphylococcus aureus [18]): 1 µg/mL (≈ 2.2 µM)
